Laboratory results: patent US20240082342A1, “PEPTIDE THERAPEUTICS FOR INCREASING LUNG CELL VIABILITY” (BOARD OF REGENTS, THE UNIVERSITY OF TEXAS SYSTEM, priority 2018, published 2024)
Entries after “also recorded” stand apart in the source; their conditions may differ.

Experiments:
AECs from COPD lungs = AECs from COPD lungs treated in vitro for 48 h; type: cell-based, human
Experimental: Primary Airway Epithelial Cells (AECs); Normal, Human (ATCC® PCS-301-010™) and Primary Airway Epithelial Cells; COPD (ATCC® PCS-301-013™) were obtained from the ATCC and cultured in Airway Cell Basal Medium with glutamine, Extract P, HLL Supplement, and AEC Supplement. containing and 1% penicillin-streptomycin. The cells were maintained at 37° C. in a humidified atmosphere at 5% CO2. All media, supplements, and antibiotics were purchased from ATCC.
CSP7 and CP were dissolved in DMSO and diluted in HBSS for working concentration of 300 µg/2 ml. These peptides were used for the treatment of COPD in vitro and IP injection of mice. For nasal insufflation, the peptides were formulated as follows: 0.579 mg/ml of CSP7/CP was added to 15.456 mg/ml of lactose monohydrate in phosphate buffered saline and the pH was adjusted to 8.4 to give a clear solution. The solution was filtered through a 0.22-micron syringe filter (Bhandary et al. supra; Tiwari et al., supra).
The cells were lysed with RIPA buffer (Pierce, USA) containing protease inhibitor cocktail (Roche, Germany) and phosphatase inhibitor cocktail (Sigma-Aldrich, USA) on ice for 30 min. After centrifugation at 12,000×g and 4° C. for 20 min, the supernatants were collected. The protein concentrations were determined using the BCA protein assay kit (Pierce, USA). Cell lysates were mixed with 5×SDS-PAGE sample buffer and boiled for 5 min. Thirty micrograms of protein was subjected to 10% SDS-PAGE electrophoresis and transferred to nitrocellulose membranes. The membranes were blocked with 5% milk and then incubated at 4° C. for 16 h with the following diluted primary antibodies (Tiwari et al., supra). The blots were then washed and probed with horseradish peroxidase-conjugated secondary IgG antibodies. The bound antibodies were visualized using SuperSignal™ Maximum Sensitivity Substrate (Thermo Fisher Scientific, USA). For normalization, the membranes were stripped with Restore Western blot stripping buffer and incubated with the following primary antibodies: anti-ERK (1:1000), anti-MUC5AC (1:1000), anti-HDAC6(1:1000), anti-SPDEF(1:1000), anti-FOXA2(1:1000), anti-FOXA3 (1:1000) anti-LC3(1:1000), anti-Beclin1(1:1000), anti-p62(1:1000), anti-p53(1:1000), anti-PAI-1(1:1000) and anti-GAPDH (1:1000).
Cell culture. Primary human AECs from histologically normal and COPD lungs were purchased from ATCC. These cells were cultured in AEC Basal Medium with glutamine, extract P, HLL Supplement, and AEC supplement and 1% penicillin-streptomycin at 37° C. and 5% CO2. AT2 cells were isolated from C57BL/6 mice following the method of Corti and colleagues (Roscioli et al, 2018) with minor modifications. The cells were plated on plastic culture dishes precoated with anti-CD-32 and anti-CD-45 antibodies for 2 h at […]. Non-adherent cells were collected, and the purity of AT2 cell preparations was assessed by […] for inclusion bodies (Shetty et al, 2012).
Peptide preparation. CSP7 and CP were dissolved in DMSO and diluted in HBSS as described elsewhere (Marudamuthu et al., SciTransl Med 11: eaat2848, 2019. doi: 10.1126/scitranslmed.aat2848). These peptides were used to treat AECs in vitro or IP injection of CS-exposed mice. For airway delivery by liquid nebulization, CSP7 (0.579 mg/ml) was added to PBS containing lactose monohydrate (15.456 mg/ml). The pH was adjusted to 8.4 to give a clear solution, filtered through a 0.22-micron syringe filter as described earlier (Marudamuthu et al., 2019.)
Protein extraction and Western blot assay. AEC and AT2 cell lysates were prepared using RIPA buffer (Pierce, USA) containing a protease inhibitor cocktail (Roche, Germany) and phosphatase inhibitor cocktail (Sigma-Aldrich, USA). AEC and AT2 cell lysates were subjected to Western blotting using ERK, MUC5AC, HDAC6, SPDEF, FOXA2, FOXA3, LC3, p53, PAI-1, Acp53, S15p53, cleaved caspase-3, β-galactosidase and R-actin antibodies at 1:500-1:1000 dilution (Table 1). […]

[1] = test system: AT2 cells from COPD lung tissues; assay: AT2 cells isolated from COPD lung tissues treated in vitro; type: cell-based, human
Experimental: Ex vivo studies using human lung tissues without patient identity was approved by the Institutional (UTHSCT) Review Board (IRB) through exempt protocol #12-003. nL and COPD tissues (n=4-5) were treated with or without CSP7 for 72 h ex vivo as described previously (Marudamuthu et al, 2019). Total protein and RNA extracted from the lung tissues were analyzed by Western blotting and qPCR for MUC5AC protein and mRNA, respectively. In separate experiments, AT2 cells isolated from nL and COPD lungs were treated with CSP7 or CP and immunoblotted for changes in senescence or apoptosis, p53, PAI-1 and SP-C expression. Similarly, nL and COPD tissues were treated with or without CSP7 or CP for 72 h ex vivo and AT2 cells isolated from these tissues were analyzed for senescence or apoptosis, p53, PAI-1 and SP-C.

[2] = AT2 cells from COPD tissue, in vitro

Row | Substance | ERK phosphorylation (AECs from COPD lungs) | p53 and apoptosis [1, 2] | Beclin-1 and ATG5 expression (AECs from COPD lungs) | FOXA2, acetylated alpha-tubulin, CAV1, p53 and PAI-1 proteins (AECs from COPD lungs) | LC3-II accumulation (AECs from COPD lungs) | MMP12 expression (AECs from COPD lungs) | PP2A and CIP2A protein (Western blot) (AECs from COPD lungs) | PP2A mRNA (AECs from COPD lungs) | p62 expression (AECs from COPD lungs) | MUC5AC, HDAC6, PAI-1, p53, Cav1, FOXA3, SPDEF, LC3, FOXA2, Ac-Tub proteins (Western blot) (AECs from COPD lungs; 48 h) | SP-C level [1, 2] | response of AT2 cells from nL tissues ([1]; subjects without COPD)
1 | WGIDKAFFTTSTVTYKWFRY [CP, scrambled control peptide with the same amino acid composition as CSP, reference compound] | still showed elevated phospho-ERK1/2 | remained elevated | – | – | – | – | – | – | – | – | – | –
2 | FTTFTVT (listed as Homo sapiens) [CSP7, heptapeptide fragment of the caveolin-1 scaffolding domain peptide CSP] | decrease in ERK phosphorylation; also recorded: reversed in AECs exposed to CSP7 | marked suppression of p53 and apoptosis | mitigate | restoration of FOXA2 and acetylated alpha-tubulin, and inhibition of CAV1, p53 and PAI-1 | reversed | decreased; also recorded: markedly reduced the MMP12 level | reversed | improved | significantly elevated | reversed; also recorded: reduced the expression of MUC5AC, HDAC6, FOXA3, SPDEF and, LC3 | restored baseline SP-C level | failed to respond to CSP7 treatment
